Laboratory results published in US20090163591A1, “USE OF SUGAR PHOSPHATES, SUGAR PHOSPHATE ANALOGS, AMINO ACIDS AND/OR AMINO ACID ANALOGS FOR MODULATING THE GLUCOLYSIS-ENZYME COMPLEX, THE MALATE ASPARATE SHUTTLE AND/OR THE TRANSAMINASES” (priority 2001, published 2009).

Tests used:
Novikoff hepatoma cells = assay: Dose-dependence of proliferation inhibition, cell density of cultivated Novikoff hepatoma cells; format: cell-based, rat; conditions: four days of cultivation, at higher dosage levels
Description: For the experiments, Novikoff hepatoma cells were cultivated in a conventional manner. The control substance contained a solvent without an active ingredient. The other groups received different doses of a respective test compound. After four days of cultivation with or without active ingredient, the cell density was determined using standard methods. In FIG. 2 is shown the dose-dependence of obtained cell densities for aminooxyacetate, in FIG. 3 for CHBA, in FIG. 4 for glycerate-2,3-bisphosphate, and in FIG. 5 for fructose-1,6-bisphosphate.

Novikoff hepatoma = Novikoff hepatoma tumor model in rats, IV infusion, tumor volume; format: in vivo, rat; conditions: for inhibition of tumor growth if the tumor was relatively small at the beginning of the treatment: Novikoff hepatoma, IV infusion, in some cases apoptosis; for inhibition of the tumor growth (tumor size): subcutaneous Novikoff hepatoma, continuous IV infusion over 10 days, 1.25 mM aminooxyacetate or 10 μM CHBA, beginning with a tumor volume of 1 ml, vs NaCl control
Description: As a tumor model, immuno-competent adult rats were used, treated with IV infusion. This animal model provides better correlation to human therapy than immuno-incompetent nude mice, which are commonly used. The animal tests were approved according to paragraph 8 section 1 of the German Animal Protection Act, and were performed according to the recommendations of the Tieraerztliche Vereinigung fuer Tierschutz e.V. (Veterinarians' Association for Animal Protection). Male inbreed rats (Sprague-Dawley, 200-250 g, Charles River, Sulzfeld, Germany) were used as tumor recipients.
Novikoff hepatoma was used as the source of tumor cells. Of several tested, experimentally produced tumors, the Novikoff hepatoma best all requirements of a solid tumor having all signs of malignity and similarity to hepatocellular carcinoma in humans. The Novikoff hepatoma was induced by Alex B. Novikoff in […] by feeding a diet containing 0.06% […] (butter yellow) to female Sprague-Dawley rats (Novikoff B., A transplantable rat liver tumour induced by 4-dimethylaminoazobenzene. Cancer Res. 1951; 17:1010). […] The chromatin structure in the tumor cells appears in an irregular form, and the nuclei are indented, round and oval.
The Deutsches Krebsforschungsinstitut in Heidelberg provided the Novikoff hepatoma cells. The cells were received in Hank's solution and intraperitoneally injected in a sterile manner into a Sprague-Dawley rat for passaging. Within a week, approximately 50 ml hemorrhagic ascites were generated and removed in a sterile manner. The pellet generated after centrifugation at 1,300 rpm for five minutes in a Falcon tube was prepped for further purification of cells from other ascites components by washing with 50 ml Dulbecco's MEM (Gibco BRL, Eggenstein) and centrifugation at 1,300 rpm for five minutes. The supernatant was decanted, and the pellet was mixed in Dulbecco's+40% fetal calf serum (FCS). 0.7 ml cell suspension and 0.7 freezing medium each were filled in Nunc tubes, airtight sealed, pre-cooled for five minutes at −20° C. and for 12 hours at −80° C., and then deep-frozen in liquid nitrogen. The freezing medium was 40% Dulbecco's, 40% FCS and 20% DMSO.
The cells were prepared for the application as follows: after thawing, the pellet was reacted in a Falcon tube with 50 ml of a medium (Dulbecco's+40% FCS), pre-heated to 37° C., and centrifuged for five minutes at 1,300 rpm. […]
After centrifugation and decantation of the supernatant, the pellet was suspended in HBSS, 100 microlitres were sampled with an Eppendorf pipette and counted for determining the number of vital cells after vital staining with erythrosine (BioMed, Munich, Germany) in a Neubauer counting chamber. […]
The tumor size was determined by CT-supported volumetry. […]

M2-PK = M2-PK (Homo sapiens, UniProt P14618); conditions: known from Eigenbrodt et al. 1992; cited from earlier work
Chain of M2-PK (P14618 whole entry, species assumed): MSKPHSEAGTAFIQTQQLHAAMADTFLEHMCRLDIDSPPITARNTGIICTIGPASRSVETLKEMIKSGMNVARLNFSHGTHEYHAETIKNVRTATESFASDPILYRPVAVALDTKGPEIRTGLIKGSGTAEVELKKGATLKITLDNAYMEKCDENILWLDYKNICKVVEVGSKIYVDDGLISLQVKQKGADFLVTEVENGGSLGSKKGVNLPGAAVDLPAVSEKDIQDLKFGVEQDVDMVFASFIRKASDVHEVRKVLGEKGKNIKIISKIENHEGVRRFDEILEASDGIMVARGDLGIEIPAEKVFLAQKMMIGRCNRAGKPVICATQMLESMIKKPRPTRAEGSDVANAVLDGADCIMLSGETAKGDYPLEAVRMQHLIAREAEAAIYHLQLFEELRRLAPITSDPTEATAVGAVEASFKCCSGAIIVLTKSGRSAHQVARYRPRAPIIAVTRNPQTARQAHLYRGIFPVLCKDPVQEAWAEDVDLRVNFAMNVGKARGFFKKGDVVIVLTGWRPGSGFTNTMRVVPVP

cells = conditions: known from Eigenbrodt et al. 1994; cited from earlier work
[1] = target: T1, glutamate pyruvate transaminase (Homo sapiens, UniProt P24298); conditions: known from Eigenbrodt et al. 1994; cited from earlier work
T1 sequence (P24298 2-496 limits assumed): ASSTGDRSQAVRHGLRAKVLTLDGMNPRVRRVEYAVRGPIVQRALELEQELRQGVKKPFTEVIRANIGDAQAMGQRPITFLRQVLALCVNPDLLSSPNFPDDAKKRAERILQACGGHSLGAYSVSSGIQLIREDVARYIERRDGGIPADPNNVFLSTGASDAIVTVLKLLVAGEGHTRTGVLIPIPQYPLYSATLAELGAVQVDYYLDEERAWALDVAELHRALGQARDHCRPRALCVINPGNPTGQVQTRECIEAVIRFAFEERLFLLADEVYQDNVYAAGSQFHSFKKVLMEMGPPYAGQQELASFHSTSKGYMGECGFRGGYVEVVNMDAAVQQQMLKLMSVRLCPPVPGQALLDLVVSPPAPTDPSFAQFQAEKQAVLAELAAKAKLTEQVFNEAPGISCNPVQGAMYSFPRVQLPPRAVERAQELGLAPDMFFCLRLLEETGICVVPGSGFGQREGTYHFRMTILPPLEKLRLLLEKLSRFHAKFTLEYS

In the case of CC(O)=C(C#N)C(=O)Nc1ccc(C(F)(F)F)cc1 [CHBA, 2-cyano-3-hydroxy-but-2-(4-trifluoromethyl-phenyl)-amide], the “inhibition of cell density (proliferation)” value (shortened to “inhibition of cell density”) (Novikoff hepatoma cells) was “practically complete inhibition”, the “inhibition of tumor growth if the tumor was relatively small at the beginning of the treatment” value (Novikoff hepatoma) was “practically complete inhibition” and the “inhibition of the tumor growth (tumor size)” value (Novikoff hepatoma) was “substantial inhibition”.

In the case of C[C@H](N)C(=O)O [alanine], the “inhibition of M2-PK” value (M2-PK) is listed as “inhibit”.

In the case of NOCC(=O)O [aminooxyacetate], the “inhibition of cell density” value (Novikoff hepatoma cells) is given as “practically complete inhibition”, the “inhibition of the proliferation of cells” value (cells) is given as “can inhibit” and the “inhibition of glutamate pyruvate transaminase” value [1] is given as “inhibit”. The “inhibition of tumor growth if the tumor was relatively small at the beginning of the treatment” value (Novikoff hepatoma) was “practically complete inhibition” and the “inhibition of the tumor growth (tumor size)” value (Novikoff hepatoma) was “substantial inhibition”.

For N[C@@H]1CON=C1O [cycloserine, reference compound], the “inhibition of the proliferation of cells” value (cells) is listed as “can inhibit” and the “inhibition of glutamate pyruvate transaminase” value [1] is listed as “inhibit”.

In the case of O=C(COP(=O)(O)O)[C@@H](O)[C@H](O)[C@H](O)COP(=O)(O)O [fructose-1,6-bisphosphate], the “displacement of the dimeric form to the highly active tetrameric form of M2-PK” value (M2-PK) is listed as “leads to a displacement of the dimeric form to the highly active tetrameric form” and the “inhibition of cell density” value (Novikoff hepatoma cells) is listed as “practically complete inhibition”.

In the case of O=C(O)C(COP(=O)(O)O)OP(=O)(O)O (stereo not drawn) [glycerate-2,3-bisphosphate], the “inhibition of cell density” value (Novikoff hepatoma cells) was “practically complete inhibition”.

For CC(C)C[C@H](N)C(=O)O [leucine], the “inhibition of M2-PK” value (M2-PK) is given as “inhibit”.
